4 substances from paper PMC3740347 (Journal of the American Chemical Society, 2013) can be followed below.

Like-named read-outs stand apart in the source and are kept apart here.

Assay [1] deals with T1, GST-VH1 (Vaccinia virus, UniProt P07239).
The target in assay [2] is T1, GST-VH1. The conditions noted are these: pH 7.4.

For HQYFMpTEpYVAT, the kcat/KM at GST-VH1 [1] stood at 3200 M⁻¹ s⁻¹. As to YNAFAIpTAA [Peptide 2], on GST-VH1 [1], the “fold decrease of VH1 catalytic activity relative to parent peptide” value is given as ~ 2 fold. For the same substance, at GST-VH1 [1] (pH 7.4), the Km was above 2000 µM and the kcat/KM came out at 93 ± 3 M⁻¹ s⁻¹. As to YDEDFpYDYEF [Peptide 26], at GST-VH1 [2], the Km was 11 µM and the kcat came to 2.6 s⁻¹. Turning to HQYFMpTEYVAT, on GST-VH1 [1], the kcat/KM is 490 M⁻¹ s⁻¹.

For orientation: kcat/KM means the second-order rate constant that governs catalysis at low substrate concentration. One may read the Km as the concentration of substrate that gives half-maximal velocity. As usually defined, the kcat is the number of substrate molecules converted per active site and unit of time at saturation.
